In brackets after ≈: the same amount, converted by molar mass.
Assays:
MGH-U1R cell line = tested on: MGH-U1R cell line; design: method as in PMID 25431950; settings: MGH-U1R; cited from earlier work
Caco-2 permeability = type: in vitro ADME, human; settings: human, Caco-2
Description: (§1) We tested both the absorptive (from the apical to basolateral compartments; A→BL) and secretory (from the basolateral to apical compartments; BL→A) permeabilities of our compound. We determined the amounts of compound transported at the specified time points and calculated the cumulative fractions [F (cum)] transported with respect to time according to the following equation [43]: F(cum)=∑^[CR(tk)−fCR(tk−1)].VR/CD.VD Where C is the concentration (μM), V is the volume (mL) of the receiver (R) or donor (D), tk is time point k, and f is the sample replacement factor calculated as f=(1−Vs/VR) , where VS is the volume of the sample (mL).
(§2) We determined the permeability coefficients as follows: Papp=(ΔF(cum)/Δt).(1/A).VD Where (ΔF(cum)/Δt) is the slope of the graph of F(cum) versus time (s), A is the area of the filter (cm^2), and VD is the volume of the donor compartment (mL).
(§3) We determined the active transport by calculating the uptake ratios and the intestinal efflux by calculating the efflux ratios using the following equations [8]: Uptake ratio=Papp(A→BL)/Papp(BL→A) Efflux ratio=Papp(BL→A)/Papp(A→BL) Where Papp(A→BL) is the absorptive permeability coefficient, and Papp(BL→A) is the secretory permeability coefficient.
(§4) The transport of our compounds through the Caco-2 cells was tested according to Hubatsch et al., 2007 [8]. Briefly, Caco-2 cells were seeded at a density of 2.6 × 10^5 cells/cm^2 onto Corning Transwell® polyester membrane inserts (1.2 cm^2 membrane diameter, 0.4 μm pore size, product #3460) in 12-well tissue culture plates and cultured in Dulbecco’s modified Eagle’s medium with high glucose (4500 mg/liter glucose) and L-glutamine (without pyruvate) supplemented with 10% FBS, 1% non-essential amino acids and 1% penicillin/streptomycin. Cells were incubated for at least 21 days at the specified conditions with the change of medium every two days. The TEER was measured using Millicell® ERS device for each insert after every change of medium to monitor the development of the cells monolayer. Cell monolayers with TEER values less than 300 Ω.cm^2 at the end of the maintenance period were not suitable for the experiment and discarded. The integrity of the cell monolayers were further confirmed by testing the phenol red permeability through the cells. The transport experiments were started by replacing the incubation culture media with the transport buffers with or without the tested compounds, the transport was tested in both directions (apical to basolateral and basolateral to apical). We used Hank’s balanced salt solution without phenol red as the transport medium buffered with either methanesulfonic acid (pH = 6.5) as the transport buffer in the apical compartment or buffered with HEPES and NaHCO3 (pH = 7.4) as the transport buffer in the basolateral compartment. NSC745885 was dissolved in the transport buffers with the aid of 1% DMSO to get final concentrations between 4–5 μM. Samples from the receiver compartments were withdrawn at different time intervals (0 min, 30 min, 45 min, 60 min, 75 min, 90 min, 120 min) and the amounts of transported drug were determined using the HPLC. After the transport experiments, the TEER was checked for every cell monolayer to assure that the monolayers were not compromised from the effect of the tested drug. The apparent permeabilities were calculated as mentioned in the previous section.

[1] = tested on: human intestinal Caco-2 cells; assay: Caco-2 permeability; type: in vitro ADME
Description: as §1, §2, §3, §4

MGH-U1 cells = tested on: MGH-U1 cells; design: method as in PMID 25431950; settings: cited from earlier work
[2] = tested on: Mycobacterium tuberculosis H37Rv; assay: Antimycobacterial susceptibility, BACTEC MGIT 960 SIRE; type: cell-based

Compound	concentration that completely suppressed growth of the resistant cell line (MGH-U1R cell line) [µM]	Papp A→B at 120 min (Caco-2 permeability; 4–5 μM, apical pH 6.5, basolateral pH 7.4, read-out: Absorptive permeability Papp(A→BL)) [×10⁻⁶ cm/s]	Papp B→A at 120 min (Caco-2 permeability; 4–5 μM, apical pH 6.5, basolateral pH 7.4, read-out: Secretory permeability Papp(BL→A)) [×10⁻⁶ cm/s]	efflux ratio at 120 min (Caco-2 permeability; Papp(BL→A)/Papp(A→BL))	Permeability ranking [1]	Uptake ratio ([1]; Papp(A→BL)/Papp(BL→A))	concentration that inhibited the non-resistant cells (MGH-U1 cells) [µM]	Effect on M. tuberculosis H37Rv ([2]; 1.25 μg/mL)	Effect on M. tuberculosis H37Rv ([2]; 2.5 μg/mL)	Effect on M. tuberculosis H37Rv ([2]; 5 μg/mL)	Effect on M. tuberculosis H37Rv ([2]; 7.5 μg/mL)	Effect on M. tuberculosis H37Rv ([2]; 10 μg/mL)	Effect on M. tuberculosis H37Rv ([2]; 15 μg/mL)	Effect on M. tuberculosis H37Rv ([2]; 20 μg/mL)	MIC ([2]; Mycobacterium tuberculosis, 336 h, H37Rv, 14 days) [µg/mL]
O=C1c2ccccc2C(=O)c2c1ccc1nsnc21 [NSC745885, anthra[1,2-c][1,2,5]thiadiazole-6,11-dione]	2.5	31.8	35.4	1.11	High; completely absorbed	0.898	2.5								
O=C1c2ccccc2C(=O)c2c1cc(Cl)c1nsnc21 [NSC757963]								Growth	Growth	Growth	Growth	Inhibition	Inhibition	Inhibition	10 (≈ 33.3 µM)
